{"source": "patent US20140378541A1", "about": "“Synthetic Epigallocatechin Gallate (EGCG) Analogs” (WAYNE STATE UNIVERSITY, priority 2011, published 2014)", "key": {"[1]": {"system": "human multiple myeloma ARP cells", "assay": "MTT assay in multiple myeloma ARP cells, alone or with Velcade", "type": "cell-based", "details": "varying doses, 48 h", "procedure": "The cells were treated with Velcade™ alone or with 20 μM of compounds 5, 7 and 23 or in combination with varying doses of Velcade™ for 48 hrs, followed by a MTT assay.\nHuman multiple myeloma cells (Arp and Opm1) cells, kindly provided by Dr. Ramesh Batchu (Wayne State University), were grown in RPMI-1640 medium supplemented with 10% FBS, 100 units/ml of penicillin, and 100 μg/ml of streptomycin. Cells were maintained at 37° C. in 5% CO2 (Mujtaba T, et al., Int J Mol Med. (2012) 29(1):102-6).\nCells were grown in a 96-well plate. Triplicate wells of cells were treated with indicated concentrations of EGCG or EGCG analogs for 24 h. After aspiration of medium, MTT (1 mg/ml) was then added to the cell cultures, followed by incubation for 3 h at 37° C. After cells were crystallized, MTT was removed and DMSO was added to dissolve the metabolized MTT product. The absorbance was then measured on a Wallac Victor3 1420 Multi-label counter at 540 nm."}, "[2]": {"system": "human multiple myeloma OPM1 cells", "assay": "MTT assay in multiple myeloma OPM1 cells, alone or with Velcade", "type": "cell-based", "details": "48 h"}}}
{"compound": "CC(C)C[C@H](NC(=O)[C@H](Cc1ccccc1)NC(=O)c1cnccn1)B(O)O", "note": "[Velcade™, bortezomib, reference compound]", "values": [{"measurement": "cell proliferation, Velcade alone", "setting": "[1]", "result": "reduced cell proliferation in a dose-dependent manner"}, {"measurement": "sensitivity of OPM1 cell line to treatment, versus ARP cells", "setting": "[2]", "result": "more resistant"}]}
